Test results: patent US20060069084A1, “Methods of inhibiting kinases” (priority 2001, published 2006)
pIC50: −log10 of the molar value.

What was measured:
Jurkat = Jurkat cellular growth assay (MTT); type: cell-based; details: Table 4, inhibit 50% of cellular growth, 40 hr incubation
Procedure: (§1) Cellular assays were performed as follows:
(§2) Cell suspensions were prepared by harvesting cells from culture. Cell used in this test should be in later log phase growth and high viability. Cells were diluted in correct growth medium to 1.1× final concentration (from 50000 cell/ml to 200,000 cell/ml, depending on cell line). 90 μL was added to samples, diluted in PBS to 10× final concentration in flat-bottom 96-well plates (10 μL). After incubation for 40 hr in 37° C. 5% CO2 incubator, MTT 5 mg/ml (in PBS, filter sterile) 20 μl per well was added. The plates were returned to incubator for another 6 hours. Lysis Buffer (10% SDS, 0.01N HCl) 100 μl per well was added and the plate put back in incubator overnight. The plate was then read at 590 nm.

T-cell activation = T-cell activation cellular assay (MTT); type: cell-based; details: Table 4, 40 hr incubation
Procedure: as §1, §2

TSU = TSU cellular growth assay (MTT); type: cell-based; details: Table 4, inhibit 50% of cellular growth, 40 hr incubation
Procedure: as §1, §2

JAK3 = biological target: T1, JAK3 (Homo sapiens, UniProt P52333); assay: JAK3 kinase domain capture-based ELISA kinase assay; type: biochemical; details: inhibit 50% of activity at 50 μM
T1 construct: The kinase domain of humanJAK3 was amplified from U937mRNA; His tag (from pFastBac HTb vector; nickel chelate purification) (N); made in house; host or cells: baculovirus; virus made in Sf9, large-scale expression in High Five insect cells
Procedure, shortened: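 The human JAK3 kinase domain was His-tagged, baculovirus-expressed in High Five cells and nickel-affinity purified. Tyrosine phosphorylation was quantified on avidin-coated ELISA plates with peroxidase-linked anti-phosphotyrosine antibody PY20.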

TYK2 = biological target: T2, TYK2 (Homo sapiens, UniProt P29597); assay: TYK2 kinase domain capture-based ELISA kinase assay; type: biochemical; details: inhibit 50% of activity at 50 μM
T2 construct: The kinase domain of humanTYK2 was amplified from A549 mRNA; His tag (from pBlueBacHis2A vector; nickel chelate purification) (N); made in house; host or cells: baculovirus; virus made in Sf9, large-scale expression in High Five insect cells
T2 sequence (P29597 897-1176 limits assumed): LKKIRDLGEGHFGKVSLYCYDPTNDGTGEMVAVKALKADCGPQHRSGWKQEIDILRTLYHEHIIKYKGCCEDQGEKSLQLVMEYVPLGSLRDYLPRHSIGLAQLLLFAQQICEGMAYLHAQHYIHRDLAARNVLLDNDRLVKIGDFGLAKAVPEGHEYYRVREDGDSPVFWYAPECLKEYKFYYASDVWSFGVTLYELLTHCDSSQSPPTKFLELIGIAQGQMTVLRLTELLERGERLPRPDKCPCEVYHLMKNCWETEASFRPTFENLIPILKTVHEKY
Procedure, shortened: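 His-tagged human TYK2 kinase domain expressed in baculovirus-infected insect cells and Ni-affinity purified. Biotinylated peptide substrate (5 μM final); phosphotyrosine captured on avidin plate and detected by peroxidase-linked PY20 antibody ELISA.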

JAK1 = biological target: T3, JAK1 (Homo sapiens, UniProt P23458); assay: JAK1 kinase domain capture-based ELISA kinase assay; type: biochemical; details: inhibit 50% of activity at 50 μM
T3 construct: The kinase domain of humanJAK1 was amplified from U937mRNA; His tag (from pFastBac HTb vector; nickel chelate purification) (N); made in house; host or cells: baculovirus; virus made in Sf9, large-scale expression in High Five insect cells
Procedure, shortened: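 His-tagged human JAK1 kinase domain was expressed via baculovirus in High Five insect cells and purified on nickel chelate resin. Phosphotyrosine was quantified by ELISA with peroxidase-linked PY20 after capture on avidin plates.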

JAK2 = biological target: T4, JAK2 (Homo sapiens, UniProt O60674); assay: JAK2 kinase domain capture-based ELISA kinase assay; type: biochemical; details: inhibit 50% of activity at 50 μM
T4 construct: The kinase domain of humanJAK2 was amplified from U937mRNA; His tag (from pFastBac HTc vector; nickel chelate purification) (N); made in house; host or cells: baculovirus; virus made in Sf9, large-scale expression in High Five insect cells
Procedure, shortened: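 His-tagged human JAK2 kinase domain was baculovirus-expressed in High Five insect cells and nickel-purified. Phosphotyrosine was captured on avidin plates and detected by ELISA with peroxidase-linked PY20.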

T1 sequence (P52333 822-1111 limits assumed): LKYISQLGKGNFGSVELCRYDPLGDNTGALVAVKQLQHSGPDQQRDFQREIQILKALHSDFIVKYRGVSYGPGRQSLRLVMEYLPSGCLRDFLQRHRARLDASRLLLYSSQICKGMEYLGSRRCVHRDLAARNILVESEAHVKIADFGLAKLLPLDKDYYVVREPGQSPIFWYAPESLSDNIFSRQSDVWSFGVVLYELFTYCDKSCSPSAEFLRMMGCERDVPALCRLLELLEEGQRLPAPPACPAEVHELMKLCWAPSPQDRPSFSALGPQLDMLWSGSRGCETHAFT
T4 sequence (O60674 849-1124 limits assumed): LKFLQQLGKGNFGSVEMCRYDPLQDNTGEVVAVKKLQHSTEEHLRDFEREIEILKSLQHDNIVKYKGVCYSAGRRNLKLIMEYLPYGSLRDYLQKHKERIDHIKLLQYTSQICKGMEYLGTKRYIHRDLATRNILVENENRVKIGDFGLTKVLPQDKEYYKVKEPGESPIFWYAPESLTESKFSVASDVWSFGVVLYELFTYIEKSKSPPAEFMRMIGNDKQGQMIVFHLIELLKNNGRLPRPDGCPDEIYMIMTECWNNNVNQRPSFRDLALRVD
T3 sequence (P23458 875-1153 limits assumed): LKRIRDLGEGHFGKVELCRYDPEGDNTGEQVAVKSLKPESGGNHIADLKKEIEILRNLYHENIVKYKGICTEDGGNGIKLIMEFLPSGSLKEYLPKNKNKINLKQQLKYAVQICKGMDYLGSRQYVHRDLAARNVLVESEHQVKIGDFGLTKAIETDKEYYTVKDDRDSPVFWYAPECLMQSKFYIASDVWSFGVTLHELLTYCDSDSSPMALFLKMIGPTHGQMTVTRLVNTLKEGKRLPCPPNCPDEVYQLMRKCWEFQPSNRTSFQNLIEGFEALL

COc1cncc(-c2cncc(NCc3ccc(F)cc3)n2)c1 [drawing 53] was tested. Which pIC50 (Jurkat; Homo sapiens, Jurkat, 40 h) did it give?
Its pIC50 is 4.30.

What about the pIC50 (T-cell activation; T-cell, 40 h) of the same molecule?
Its pIC50 is 4.52.

And the pIC50 (TSU)?
Its pIC50 is 4.30.

How did the pIC50 (Jurkat; Homo sapiens, Jurkat, 40 h) turn out when COc1cncc(-c2cncc(N[C@@H](C)c3ccccc3)n2)c1 [drawing 54] was run?
Its pIC50 is 4.30.

What about the pIC50 (T-cell activation; T-cell, 40 h) of the same molecule?
The pIC50 was 4.82.

What about the pIC50 (TSU) of the same molecule?
The pIC50 was 4.70.

What does the source list for COc1cc(-c2cncc(N[C@@H](C)c3ccccc3)n2)cc(OC)c1OC [drawing 55]?
pIC50 (Jurkat): 4.70; pIC50 (T-cell activation): 5.00; pIC50 (TSU): 5.00

Which results are given for COc1cc(-c2cncc(NCc3ccccc3)n2)cc(OC)c1OC [drawing 56]?
pIC50 (Jurkat; Homo sapiens, Jurkat, 40 h): 4.70; pIC50 (T-cell activation; T-cell, 40 h): 4.82; pIC50 (TSU): 5.00

Which results are given for COc1cc(-c2cncc(N[C@@H](C)c3ccccc3)n2)cc(OC)c1OC [drawing 57]?
pIC50 (Jurkat; Homo sapiens, Jurkat, 40 h): 4.46; pIC50 (T-cell activation; T-cell, 40 h): 4.92; pIC50 (TSU): 5.00

What does the source list for C[C@H](Nc1cncc(-c2cccc(CO)c2)n1)c1ccccc1 [drawing 58]?
pIC50 (Jurkat; Homo sapiens, Jurkat, 40 h): 4.70; pIC50 (T-cell activation; T-cell, 40 h): 4.70; pIC50 (TSU): 4.82

What does the source list for COc1cncc(-c2cncc(NCC(C)(C)CO)n2)c1 [drawing 59]?
pIC50 (Jurkat; Homo sapiens, Jurkat, 40 h): 4.40; pIC50 (T-cell activation; T-cell, 40 h): 4.82; pIC50 (TSU): 4.40

Which results are given for CC(=O)Nc1cccc(-c2cncc(NCc3cccc(Cl)c3)n2)c1 [drawing 60]?
pIC50 (Jurkat; Homo sapiens, Jurkat, 40 h): 4.40; pIC50 (T-cell activation; T-cell, 40 h): 4.52; pIC50 (TSU): 5.30

Oc1ccc(-c2cn3ccnc3c(N3CCOCC3)n2)cc1 [drawing 75] was tested. Which pIC50 (JAK3; Table 5) did it give?
Its pIC50 is > 4.30.

What about the pIC50 (TYK2; Table 5) of the same molecule?
Its pIC50 is > 4.30.

What about the pIC50 (JAK1; Table 5) of the same molecule?
The pIC50 was > 4.30.

What about the pIC50 (JAK2; Table 5) of the same molecule?
Its pIC50 is > 4.30.

Brc1cn2ccnc2c(Nc2ccc(N3CCOCC3)cc2)n1 [drawing 82] was tested. Which pIC50 (JAK3; Table 5) did it give?
The pIC50 was > 4.30.

And the pIC50 (TYK2; Table 5)?
Its pIC50 is > 4.30.

And the pIC50 (JAK1; Table 5)?
The pIC50 was > 4.30.

And the pIC50 (JAK2; Table 5)?
Its pIC50 is > 4.30.

What does the source list for CCN(CCO)c1ccc(Nc2nc(Br)cn3ccnc23)cc1 [drawing 83]?
pIC50 (JAK3; Table 5): > 4.30; pIC50 (TYK2; Table 5): > 4.30; pIC50 (JAK1; Table 5): > 4.30; pIC50 (JAK2; Table 5): > 4.30

COCCNc1nc(-c2ccccc2)cn2ccnc12 [drawing 85] was tested. Which pIC50 (JAK3; Table 5) did it give?
The pIC50 was > 4.30.

What about the pIC50 (TYK2; Table 5) of the same molecule?
Its pIC50 is > 4.30.

What about the pIC50 (JAK1; Table 5) of the same molecule?
The pIC50 was > 4.30.

What about the pIC50 (JAK2; Table 5) of the same molecule?
Its pIC50 is > 4.30.

With Nc1cccc(-c2cn3ccnc3c(Nc3ccccc3)n2)c1 [drawing 87] as the molecule, how does the pIC50 (JAK3; Table 6) read?
The pIC50 was < 4.30.

What about the pIC50 (TYK2; Table 6) of the same molecule?
Its pIC50 is > 4.30.

And the pIC50 (JAK1; Table 6)?
Its pIC50 is > 4.30.

And the pIC50 (JAK2; Table 6)?
The pIC50 was > 4.30.

With Oc1ccc(-c2cn3ccnc3c(N3CCOCC3)n2)cc1 [drawing 90] as the molecule, how does the pIC50 (JAK3; Table 6) read?
Its pIC50 is < 4.30.

What about the pIC50 (TYK2; Table 6) of the same molecule?
The pIC50 was < 4.30.

And the pIC50 (JAK1; Table 6)?
Its pIC50 is < 4.30.

What about the pIC50 (JAK2; Table 6) of the same molecule?
Its pIC50 is > 4.30.

How did the pIC50 (JAK3; Table 6) turn out when COCCNc1nc(-c2ccccc2)cn2ccnc12 [drawing 93] was run?
Its pIC50 is < 4.30.

What about the pIC50 (TYK2; Table 6) of the same molecule?
The pIC50 was < 4.30.

And the pIC50 (JAK1; Table 6)?
Its pIC50 is > 4.30.

What about the pIC50 (JAK2; Table 6) of the same molecule?
The pIC50 was > 4.30.

With CCN(CCO)c1ccc(Nc2nc(-c3cccc4ccccc34)cn3ccnc23)cc1 [drawing 94] as the molecule, how does the pIC50 (JAK3; Table 6) read?
Its pIC50 is < 4.30.

What about the pIC50 (TYK2; Table 6) of the same molecule?
The pIC50 was < 4.30.

And the pIC50 (JAK1; Table 6)?
Its pIC50 is > 4.30.

And the pIC50 (JAK2; Table 6)?
Its pIC50 is > 4.30.

CCN(CCO)c1ccc(Nc2nc(-c3ccccc3CO)cn3ccnc23)cc1 [drawing 96] was tested. Which pIC50 (JAK3; Table 6) did it give?
The pIC50 was < 4.30.

What about the pIC50 (TYK2; Table 6) of the same molecule?
Its pIC50 is > 4.30.

And the pIC50 (JAK1; Table 6)?
The pIC50 was > 4.30.

And the pIC50 (JAK2; Table 6)?
Its pIC50 is > 4.30.

Which results are given for Brc1cn2ccnc2c(Nc2ccc(N3CCOCC3)cc2)n1 [drawing 100]?
pIC50 (JAK3; Table 6): < 4.30; pIC50 (TYK2; Table 6): > 4.30; pIC50 (JAK1; Table 6): > 4.30; pIC50 (JAK2; Table 6): > 4.30

Which results are given for CCN(CCO)c1ccc(Nc2nc(Br)cn3ccnc23)cc1 [drawing 101]?
pIC50 (JAK3; Table 6): < 4.30; pIC50 (TYK2; Table 6): > 4.30; pIC50 (JAK1; Table 6): > 4.30; pIC50 (JAK2; Table 6): > 4.30

With c1cc(-c2cn3ccnc3c(Nc3ccc(N4CCOCC4)cc3)n2)ccn1 [drawing 120] as the molecule, how does the pIC50 (JAK3; Table 6) read?
The pIC50 was < 4.30.

What about the pIC50 (TYK2; Table 6) of the same molecule?
Its pIC50 is > 4.30.

And the pIC50 (JAK1; Table 6)?
The pIC50 was > 4.30.

What about the pIC50 (JAK2; Table 6) of the same molecule?
Its pIC50 is > 4.30.

What does the source list for c1cncc(-c2cn3ccnc3c(Nc3ccc(N4CCOCC4)cc3)n2)c1 [drawing 131]?
pIC50 (JAK3; Table 6): < 4.30; pIC50 (TYK2; Table 6): > 4.30; pIC50 (JAK1; Table 6): > 4.30; pIC50 (JAK2; Table 6): > 4.30

OCc1ccccc1-c1cn2ccnc2c(Nc2ccc(N3CCOCC3)cc2)n1 [drawing 142] was tested. Which pIC50 (JAK3; Table 6) did it give?
The pIC50 was < 4.30.

What about the pIC50 (TYK2; Table 6) of the same molecule?
Its pIC50 is < 4.30.

And the pIC50 (JAK1; Table 6)?
The pIC50 was > 4.30.

And the pIC50 (JAK2; Table 6)?
The pIC50 was > 4.30.
